This passage reports EC50 results from patent US20220135590A1, “ISOXAZOLE COMPOUNDS FOR THE TREATMENT OF DISEASES ASSOCIATED WITH HBV INFECTIONS” (Janssen Science Ireland Unlimited Company, priority 2017, published 2022).

The structures appear in SMILES notation. pEC50: −log10 of the molar value.

The test system of the assay is HBV. The assay is described as follows: HBV replication inhibition assay (BDNA assay) in HepG2.2.15 cells. Type of assay: cell-based. Conditions: Hepatitis B virus, 144 h, 6 days incubation, encapsidated HBV DNA in supernatant by branched DNA QuantiGene assay. How it is done:
HBV Replication Inhibition Assay
HBV replication inhibition by the disclosed compounds were determined in cells infected or transfected with HBV or cells with stably integrated HBV, such as HepG2.2.15 cells (Sells et al. 1987). In this example, HepG2.2.15 cells were maintained in cell culture medium containing 10% fetal bovine serum (FBS), Geneticin, L-glutamine, penicillin and streptomycin. HepG2.2.15 cells were seeded in 96-well plates at a density of 40,000 cells/well and were treated with serially diluted compounds at a final DMSO concentration of 0.5% either alone or in combination by adding drugs in a checker box format. Cells were incubated with compounds for three days, after which medium was removed and fresh medium containing compounds was added to cells and incubated for another three days. At day 6, supernatant was removed and treated with DNase at 37° C. for 60 minutes, followed by enzyme inactivation at 75° C. for 15 minutes. Encapsidated HBV DNA was released from the virions and covalently linked HBV polymerase by incubating in lysis buffer (Affymetrix QS0010) containing 2.5 μg proteinase K at 50° C. for 40 minutes. HBV DNA was denatured by addition of 0.2 M NaOH and detected using a branched DNA (BDNA) QuantiGene assay kit according to manufacturer recommendation (Affymetrix). HBV DNA levels were also quantified using qPCR, based on amplification of encapsidated HBV DNA extraction with QuickExtraction Solution (Epicentre Biotechnologies) and amplification of HBV DNA using HBV specific PCR probes that can hybridize to HBV DNA and a fluorescently labeled probe for quantitation. In addition, cell viability of HepG2.2.15 cells incubated with test compounds alone or in combination was determined by using CellTitre-Glo reagent according to the manufacturer protocol (Promega). The mean background signal from wells containing only culture medium was subtracted from all other samples, and percent inhibition at each compound concentration was calculated by normalizing to signals from HepG2.2.15 cells treated with 0.5% DMSO using equation E1.
% inhibition (DMSOave−Xi)DMSOave×100% E1:
where DMSOave is the mean signal calculated from the wells that were treated with DMSO control (0% inhibition control) and X^1 is the signal measured from the individual wells. EC50 values, effective concentrations that achieved 50% inhibitory effect, were determined by non-linear fitting using Graphpad Prism software (San Diego, Calif.) and equation E2.
Y=Ymin+(Ymax−Ymin)/(1+10(Log EC50−X)×HillSlope) E2:
where Y represents percent inhibition values and X represents the logarithm of compound concentrations.
Selected disclosed compounds were assayed in the HBV replication assay (BDNA assay), as described above, and a representative group of these active compounds is shown in Table 3. […] In Table 3, “A” represents 1 nM<EC50≤100 nM; “B” represents 100 nM<EC50≤1,000 nM; and “C” represents 1,000 nM<EC50≤10,000 nM.

In the case of `C[C@H]1Cc2noc(-c3ncccn3)c2CN1C(=O)Nc1ccc(F)c(C#N)c1` [Example 1, (S)—N-(3-Cyano-4-fluorophenyl)-6-methyl-3-(pyrimidin-2-yl)-6,7-dihydroisoxazolo[4,3-c]pyridine-5(4H)-carboxamide], the pEC50 (in general, the EC50 on a negative log10 scale, so that one unit is a factor of ten) was 7.00 to 9.00. For the compound `C[C@H]1Cc2noc(-c3ncccn3)c2CN1C(=O)Nc1ccnc(C(F)F)c1F` [Example 2, (S)—N-(2-(Difluoromethyl)-3-fluoropyridin-4-yl)-6-methyl-3-(pyrimidin-2-yl)-6,7-dihydroisoxazolo[4,3-c]pyridine-5(4H)-carboxamide], the pEC50 is 7.00 to 9.00. Take `C[C@H]1Cc2noc(-c3ncccn3)c2CN1C(=O)Nc1ccc(F)c(C(F)(F)F)c1` [Example 3, (S)—N-(4-Fluoro-3-(trifluoromethyl)phenyl)-6-methyl-3-(pyrimidin-2-yl)-6,7-dihydroisoxazolo[4,3-c]pyridine-5(4H)-carboxamide]: the pEC50 is 7.00 to 9.00. As to `C[C@H]1Cc2noc(-c3ncccn3)c2CN1C(=O)Nc1ccnc(Br)c1F` [Example 4, (S)—N-(2-Bromo-3-fluoropyridin-4-yl)-6-methyl-3-(pyrimidin-2-yl)-6,7-dihydroisoxazolo[4,3-c]pyridine-5(4H)-carboxamide], the pEC50 was 7.00 to 9.00. As for `C[C@H]1Cc2onc(-c3ncccn3)c2CN1C(=O)Nc1ccc(F)c(C#N)c1` [Example 5, (S)—N-(3-Cyano-4-fluorophenyl)-6-methyl-3-(pyrimidin-2-yl)-6,7-dihydroisoxazolo[4,5-c]pyridine-5(4H)-carboxamide], the figure is 7.00 to 9.00. Turning to `C[C@H]1Cc2onc(-c3ncccn3)c2CN1C(=O)Nc1ccnc(C(F)F)c1F` [Example 6, (S)—N-(2-(Difluoromethyl)-3-fluoropyridin-4-yl)-6-methyl-3-(pyrimidin-2-yl)-6,7-dihydroisoxazolo[4,5-c]pyridine-5(4H)-carboxamide], the pEC50 is 7.00 to 9.00. In the case of `C[C@H]1Cc2onc(-c3ncccn3)c2CN1C(=O)Nc1ccc(F)c(C(F)(F)F)c1` [Example 7, (S)—N-(4-Fluoro-3-(trifluoromethyl)phenyl)-6-methyl-3-(pyrimidin-2-yl)-6,7-dihydroisoxazolo[4,5-c]pyridine-5(4H)-carboxamide], the pEC50 is 6.00 to 7.00.

With `C[C@H]1Cc2onc(-c3ncccn3)c2CN1C(=O)Nc1ccnc(Br)c1F` [Example 8, (S)—N-(2-Bromo-3-fluoropyridin-4-yl)-6-methyl-3-(pyrimidin-2-yl)-6,7-dihydroisoxazolo[4,5-c]pyridine-5(4H)-carboxamide], the pEC50 is 6.00 to 7.00. For the compound `CC1(C)CN(C(=O)Nc2ccc(F)c(C#N)c2)Cc2c1noc2-c1ncccn1` [Example 9, N-(3-Cyano-4-fluorophenyl)-7,7-dimethyl-3-(pyrimidin-2-yl)-6,7-dihydroisoxazolo[4,3-c]pyridine-5(4H)-carboxamide], the pEC50 was 7.00 to 9.00. Take `CC1(C)CN(C(=O)Nc2ccc(F)c(C(F)(F)F)c2)Cc2c1noc2-c1ncccn1` [Example 10, N-(4-Fluoro-3-(trifluoromethyl)phenyl)-7,7-dimethyl-3-(pyrimidin-2-yl)-6,7-dihydroisoxazolo[4,3-c]pyridine-5(4H)-carboxamide]: the negative logarithm of the EC50 (pEC50) is 6.00 to 7.00. Take `CC1(C)CN(C(=O)Nc2ccnc(C(F)F)c2F)Cc2c1noc2-c1ncccn1` [Example 11, N-(2-(Difluoromethyl)-3-fluoropyridin-4-yl)-7,7-dimethyl-3-(pyrimidin-2-yl)-6,7-dihydroisoxazolo[4,3-c]pyridine-5(4H)-carboxamide]: the pEC50 is 6.00 to 7.00. `CC1(C)CN(C(=O)Nc2ccnc(Br)c2F)Cc2c1noc2-c1ncccn1` [Example 12, N-(2-Bromo-3-fluoropyridin-4-yl)-7,7-dimethyl-3-(pyrimidin-2-yl)-6,7-dihydroisoxazolo[4,3-c]pyridine-5(4H)-carboxamide]: the pEC50 is 7.00 to 9.00. Take `CC1(C)CN(C(=O)Nc2ccc(F)c(C#N)c2)Cc2c(-c3ncccn3)noc21` [Example 13, N-(3-Cyano-4-fluorophenyl)-7,7-dimethyl-3-(pyrimidin-2-yl)-6,7-dihydroisoxazolo[4,5-c]pyridine-5(4H)-carboxamide]: the pEC50 was 6.00 to 7.00. In the case of `CC1(C)CN(C(=O)Nc2ccc(F)c(C(F)(F)F)c2)Cc2c(-c3ncccn3)noc21` [Example 14, N-(4-Fluoro-3-(trifluoromethyl)phenyl)-7,7-dimethyl-3-(pyrimidin-2-yl)-6,7-dihydroisoxazolo[4,5-c]pyridine-5(4H)-carboxamide], the pEC50 is 5.00 to 6.00. In the case of `CC1(C)CN(C(=O)Nc2ccnc(C(F)F)c2F)Cc2c(-c3ncccn3)noc21` [Example 15, N-(2-(Difluoromethyl)-3-fluoropyridin-4-yl)-7,7-dimethyl-3-(pyrimidin-2-yl)-6,7-dihydroisoxazolo[4,5-c]pyridine-5(4H)-carboxamide], the pEC50 was 6.00 to 7.00.

Turning to `CC1(C)CN(C(=O)Nc2ccnc(Br)c2F)Cc2c(-c3ncccn3)noc21` [Example 16, N-(2-Bromo-3-fluoropyridin-4-yl)-7,7-dimethyl-3-(pyrimidin-2-yl)-6,7-dihydroisoxazolo[4,5-c]pyridine-5(4H)-carboxamide], the pEC50 is 7.00 to 9.00.
